“Also recorded” adds a separate entry of the source.
Key:
HK853 = HK853 (Thermotoga maritima, UniProt Q9WZV7); experiment: Inhibition of HK853 activity, BODIPY-ATPγS competition, in-gel fluorescence; type: biochemical; settings: for IC50 values (μM) (95% confidence interval), n = 2: HK853 inhibitory activity, value (95% confidence interval)
HK853 D411N = experiment: Thermal shift assay; settings: D411N alone Tm 67 °C; inhibitor 1 mM; no significant change
WT HK853 = experiment: Thermal shift assay; settings: WT HK853 alone Tm = 70 °C; inhibitor 1 mM
HSP90α = HSP90α (Homo sapiens, UniProt P07900); experiment: HSP90 inhibition assay, fluorescence polarization Hsp90α kit; type: binding

Nc1nc2ncnc-2c[nH]1 [Compound 21, 2-aminopurine]
HK853 inhibition, result in words (HK853): low affinity; also recorded: negligible activity

Nc1nc(Cl)c2ncn([C@@H]3O[C@H](CO)[C@@H](O)[C@H]3O)c2n1 [Compound 20, 2-amino,6-chloropurine ribose]
HK853 inhibition, result in words (HK853): negligible activity

CCCN(CCC)c1[nH]cnc2ncnc1-2 [Compound 1, 6-N,N-dipropyl adenine]
change in the Tm value of HK853 D411N (HK853 D411N): ≤ 2 °C

Nc1ncnc2c1ncn2[C@@H]1O[C@H](COP(=O)(O)OP(=O)(O)O)[C@@H](O)[C@H]1O [Compound 6, ADP, reference compound]
change in the Tm value of HK853 D411N (HK853 D411N): ≤ 2 °C | Tm of WT HK853 in the presence of compound (WT HK853): 80 °C

c1ccc(CCNc2ncnc3[nH]cnc23)cc1 [Compound 3, 6-N-phenylethyladenine]
IC50 (HSP90α): ≤ 1.25 mM

Nc1nc(N)c2nc[nH]c2n1 [Compound 13, 2-aminoadenine]
HK853 inhibition, result in words (HK853): negligible activity

CC1CC(Nc2ncnc3nc[nH]c23)CC(C)(C)C1 (stereo not drawn) [Compound 4, 6-N,N-(3,3,5-trimethylcyclohexyl) adenine]
IC50 (HSP90α): ≤ 1.25 mM

Nc1nc(N)c2ncn([C@@H]3O[C@H](CO)[C@@H](O)[C@H]3O)c2n1 [Compound 14, aminoadenosine]
HK853 inhibition, result in words (HK853): negligible activity

OC[C@H]1O[C@@H](n2cnc3c(Nc4ccccc4)ncnc32)[C@H](O)[C@@H]1O [Compound 23, 6-anilinopurine ribose]
HK853 inhibition, result in words (HK853): failed to inhibit | IC50 values (μM) (95% confidence interval), n = 2 (HK853): No Inhibition

c1ccc(Nc2ncnc3[nH]cnc23)cc1 [Compound 22, 6-anilinopurine]
fold superior potency compared to 3 (HK853; HK853): ~20 fold | fold superior potency compared to 9 (HK853; HK853): ~60 fold

Nc1nc2c(ncn2[C@@H]2O[C@H](CO)[C@@H](O)[C@H]2O)c(=O)[nH]1 [Guanosine, reference compound]
HK853 inhibition, result in words (HK853): neither guanine or guanosine inhibited HK853 | IC50 values (μM) (95% confidence interval), n = 2 (HK853): No Inhibition

Cn1cnc2ncnc(N)c21 [Compound 26, 7-N-methyladenine]
HK853 inhibition, result in words (HK853): failed to show any activity | IC50 values (μM) (95% confidence interval), n = 2 (HK853): No Inhibition

Nc1nc2[nH]cnc2c(=O)[nH]1 [Guanine, reference compound]
HK853 inhibition, result in words (HK853): neither guanine or guanosine inhibited HK853

OC[C@H]1O[C@@H](n2cnc3c(NCCc4ccccc4)ncnc32)[C@H](O)[C@@H]1O [Compound 10, 6-N-phenylethyladenosine]
HK853 inhibition, result in words (HK853): negligible activity | fold decreased potency (HK853; HK853, riboside 10 versus lead 3): > 20 fold

O=c1[nH]cnc2c1ncn2[C@@H]1O[C@H](CO)[C@@H](O)[C@H]1O [Inosine, reference compound]
IC50 values (μM) (95% confidence interval), n = 2 (HK853): No Inhibition

Nc1ncnc2[nH]nnc12 [Compound 30, 8-azadenine]
HK853 inhibition, result in words (HK853): minimal activity

Cn1cnc2nc(Cl)nc(N)c21 [Compound 28, 2-chloro,7-N-methyladenine]
HK853 inhibition, result in words (HK853): inactive | IC50 values (μM) (95% confidence interval), n = 2 (HK853): No Inhibition
